In patent publication US12410355B2, “Compositions and methods for carbon dioxide solidification” (CHEVRON U.S.A. INC., priority 2022, dated 2025):

Tests used:
[1] = GBIG·(HCO3)2(H2O)2(s) precipitation upon contacting with CO2(g); type: physicochemical; details: CO2 gas 0.5 psig, 30 minutes
Description: GBIG·(HCO3)2(H2O)2(s) Precipitation Upon Contacting with CO2(g)
Pour approximately 5 ml of the synthesized chemical solution into the polycarbonate reservoir. Open the CO2 gas cylinder valve and take note of the pressure. Open the delivery valve of the regulator. Increase the delivery pressure to 0.5 psig by turning the regulator knob. Open the 3-way valve connected to the bottom of the polycarbonate reservoir to initiate CO2 gas flow into the reservoir. Watch for precipitation in the liquid through the transparent polycarbonate reservoir wall for 30 minutes. For temperature dependence testing: Samples were placed in ovens at temperature of interest for 30 minutes, then used in the procedure detailed above.
Results for the precipitation test for varying salinity and glyoxal-bis(iminoguanidine) (GBIG) concentration are shown in Tables 2-4 and FIGS. 3A-3C. Table 2 and FIG. 3A show results for 1 wt % NaCl and 0.397 wt % GBIG. Table 3 and FIG. 3B show results for 0.1 wt % NaCl and 0.243 wt % GBIG. Table 4 and FIG. 3C show results for 20 wt % NaCl and 0.064 wt % GBIG.

[2] = Solubility limit (Ksp) of GBIG in NaCl brine; type: physicochemical; details: 25° C., 20 minutes of sonication
Description: Solubility limit Ksp at 25° C. and 20 minutes of sonication. Solubility limit strongly depends on salinity: nonlinear dependence.

N=C(N)NN=CC=NNC(=N)N [GBIG, glyoxal-bis(iminoguanidine)]
Precipitation? ([1]; 0.1 wt % NaCl and 0.243 wt % GBIG, 25° C.): Yes
Precipitation? ([1]; 0.1 wt % NaCl and 0.243 wt % GBIG, 65° C.): Yes
Precipitation? ([1]; 0.1 wt % NaCl and 0.243 wt % GBIG, 80° C.): Yes
Precipitation? ([1]; 0.1 wt % NaCl and 0.243 wt % GBIG, 100° C.): Yes
Precipitation? ([1]; 0.1 wt % NaCl and 0.243 wt % GBIG, 115° C.): Yes
Precipitation? ([1]; 1 wt % NaCl and 0.397 wt % GBIG, 25° C.): Yes
Precipitation? ([1]; 1 wt % NaCl and 0.397 wt % GBIG, 65° C.): Yes
Precipitation? ([1]; 1 wt % NaCl and 0.397 wt % GBIG, 80° C.): Yes
Precipitation? ([1]; 1 wt % NaCl and 0.397 wt % GBIG, 100° C.): Yes
Precipitation? ([1]; 1 wt % NaCl and 0.397 wt % GBIG, 115° C.): Yes
Precipitation? ([1]; 20 wt % NaCl and 0.064 wt % GBIG, 25° C.): Yes
Precipitation? ([1]; 20 wt % NaCl and 0.064 wt % GBIG, 65° C.): Yes
Precipitation? ([1]; 20 wt % NaCl and 0.064 wt % GBIG, 80° C.): Yes
Precipitation? ([1]; 20 wt % NaCl and 0.064 wt % GBIG, 100° C.): Yes
Precipitation? ([1]; 20 wt % NaCl and 0.064 wt % GBIG, 115° C.): Yes
GBIG Ksp ([2]; 0.1 wt % NaCl): 0.0143
Solubility limit, GBIG (wt %) ([2]; 0.1 wt % NaCl): 0.243 wt %
GBIG Ksp ([2]; 1 wt % NaCl): 0.0234
Solubility limit, GBIG (wt %) ([2]; 1 wt % NaCl): 0.397 wt %
GBIG Ksp ([2]; 20 wt % NaCl): 0.0038
Solubility limit, GBIG (wt %) ([2]; 20 wt % NaCl): 0.064 wt %
